# Laboratory results published in ChEMBL document CHEMBL1149358, “Synthesis and dipeptidyl peptidase inhibition of N-(4-substituted-2,4-diaminobutanoyl)piperidines” (Bioorg Med Chem Lett, 2006).
# pIC50, pKi: −log10 of the molar value.
# Columns and labels:
# Dipeptidyl peptidase 4 = Dipeptidyl peptidase 4 (Homo sapiens, UniProt P27487); test: Inhibition of DPP4
# Dipeptidyl peptidase 8 = Dipeptidyl peptidase 8 (Homo sapiens, UniProt Q6V1X1); test: Inhibition of DPP8
# Dipeptidyl peptidase 2 [1] = target: T1, Dipeptidyl peptidase 2 (Homo sapiens, UniProt Q9UHL4); test: Inhibition of DPP II
# Dipeptidyl peptidase 2 [2] = target: T1, Dipeptidyl peptidase 2; test: Inhibition of DPP2
# Homo sapiens = organism: Homo sapiens; test: Selectivity for DPP2 over DPP8
# Sequence of Dipeptidyl peptidase 4 (P27487 whole entry): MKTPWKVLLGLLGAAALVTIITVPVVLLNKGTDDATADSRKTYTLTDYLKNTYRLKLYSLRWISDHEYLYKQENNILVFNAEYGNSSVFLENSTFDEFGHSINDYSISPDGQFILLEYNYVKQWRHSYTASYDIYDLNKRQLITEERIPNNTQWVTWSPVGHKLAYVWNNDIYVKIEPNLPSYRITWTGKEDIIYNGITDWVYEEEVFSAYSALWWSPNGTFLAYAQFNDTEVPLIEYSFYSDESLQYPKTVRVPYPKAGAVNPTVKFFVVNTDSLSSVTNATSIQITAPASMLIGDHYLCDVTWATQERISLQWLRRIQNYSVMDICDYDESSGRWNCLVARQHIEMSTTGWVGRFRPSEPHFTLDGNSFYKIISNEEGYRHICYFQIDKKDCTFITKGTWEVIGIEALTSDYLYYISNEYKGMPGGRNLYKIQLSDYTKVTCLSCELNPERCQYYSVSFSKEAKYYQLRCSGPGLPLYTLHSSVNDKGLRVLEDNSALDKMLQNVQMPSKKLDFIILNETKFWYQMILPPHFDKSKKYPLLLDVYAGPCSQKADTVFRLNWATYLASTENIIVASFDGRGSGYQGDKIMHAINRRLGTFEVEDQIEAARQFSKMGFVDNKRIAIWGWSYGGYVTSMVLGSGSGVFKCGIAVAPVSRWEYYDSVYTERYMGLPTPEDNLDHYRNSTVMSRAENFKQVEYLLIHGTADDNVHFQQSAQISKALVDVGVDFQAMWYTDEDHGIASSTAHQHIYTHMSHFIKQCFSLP
# Sequence of Dipeptidyl peptidase 8 (Q6V1X1 whole entry): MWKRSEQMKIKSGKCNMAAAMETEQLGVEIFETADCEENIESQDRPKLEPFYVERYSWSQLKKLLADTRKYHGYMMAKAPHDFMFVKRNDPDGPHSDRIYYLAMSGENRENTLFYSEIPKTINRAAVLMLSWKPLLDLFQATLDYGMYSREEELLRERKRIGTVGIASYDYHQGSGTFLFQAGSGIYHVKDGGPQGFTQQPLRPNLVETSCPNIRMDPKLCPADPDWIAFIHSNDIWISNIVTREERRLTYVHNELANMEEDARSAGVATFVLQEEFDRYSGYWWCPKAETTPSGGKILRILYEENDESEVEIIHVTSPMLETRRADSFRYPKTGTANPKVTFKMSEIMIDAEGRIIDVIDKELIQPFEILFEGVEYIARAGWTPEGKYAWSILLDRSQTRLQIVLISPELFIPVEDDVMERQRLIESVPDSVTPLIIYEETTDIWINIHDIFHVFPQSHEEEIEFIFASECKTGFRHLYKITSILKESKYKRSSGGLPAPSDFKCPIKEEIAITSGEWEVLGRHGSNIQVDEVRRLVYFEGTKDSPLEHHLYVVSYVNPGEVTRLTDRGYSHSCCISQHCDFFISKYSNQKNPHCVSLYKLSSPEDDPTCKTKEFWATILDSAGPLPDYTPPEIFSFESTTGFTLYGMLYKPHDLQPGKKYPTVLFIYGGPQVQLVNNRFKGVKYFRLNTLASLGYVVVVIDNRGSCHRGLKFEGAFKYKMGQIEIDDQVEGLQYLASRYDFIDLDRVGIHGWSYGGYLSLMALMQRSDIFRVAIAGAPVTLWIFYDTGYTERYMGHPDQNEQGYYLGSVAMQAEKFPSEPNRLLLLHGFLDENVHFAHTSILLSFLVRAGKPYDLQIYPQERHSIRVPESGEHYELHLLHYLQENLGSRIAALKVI
Structure (SMILES),pIC50 (Dipeptidyl peptidase 4),pIC50 (Dipeptidyl peptidase 8),pKi (Dipeptidyl peptidase 2 [1]),pIC50 (Dipeptidyl peptidase 2 [2]),Selectivity index (Homo sapiens)
CC[C@@H](C[C@H](N)C(=O)N1CCCCC1)NCc1ccc(Cl)cc1,< 4.00,< 4.00,–,–,–
N[C@@H](C[C@H](Cc1ccccc1)NCc1ccc(Cl)cc1)C(=O)N1CCCCC1,< 3.90,< 4.00,–,–,–
C[C@H](C[C@H](N)C(=O)N1CCCCC1)NCc1ccc(Cl)cc1,< 3.60,–,–,–,–
N[C@@H](C[C@@H](Cc1ccccc1)NCc1ccc(Cl)cc1)C(=O)N1CCCCC1,< 3.90,< 3.30,–,–,–
CC(C)[C@@H](C[C@H](N)C(=O)N1CCCCC1)NCc1ccc(Cl)cc1,< 3.90,< 4.00,–,–,–

# More lines, now with the values ahead:
pIC50 (Dipeptidyl peptidase 4),pIC50 (Dipeptidyl peptidase 8),pKi (Dipeptidyl peptidase 2 [1]),pIC50 (Dipeptidyl peptidase 2 [2]),Selectivity index (Homo sapiens),Structure (SMILES)
3.49,–,–,–,–,C[C@@H](C[C@H](N)C(=O)N1CCCCC1)NCc1ccc(Cl)cc1
3.63,< 4.00,–,–,–,CCC(C)[C@@H](C[C@H](N)C(=O)N1CCCCC1)NCc1ccc(Cl)cc1 (some centres not stated)
3.71,3.85,10.09,9.66,> 10000,N[C@@H](CCNCc1ccc(Cl)cc1)C(=O)N1CCCCC1
